Results taken from US11559530B2, “Oral testosterone undecanoate therapy” (Lipocine Inc., priority 2016, dated 2023).

Test: Clinical study of oral TU testosterone therapy in hypogonadal males: serum testosterone Cavg and Cmax responder analysis
Format: in vivo, human
Settings: for Cavg >300 ng/dL ≥75% patients / Cavg >300 ng/dL ≥80% patients / Cmax > 1500 ng/dL <15% patients / Cmax > 1500 ng/dL <20% patients / Cmax > 1800 ng/dL <5% patients / Cmax > 1800 ng/dL <10% patients / Cmax > 2500 ng/dL <2% patients / Cmax > 2500 ng/dL none of patients: with food
Protocol: The dosage form from Example B of Composition 4 with dosing regimen (Regimen #9-16) of dosing category BID-equal dose with daily dose range 150-600 mg were used for a Clinic Study of Testosterone Therapy for hypogonadal males.
The clinical study was a randomized double-blind, placebo-controlled dose escalating study of the safety, efficacy, tolerability, and pharmacokinetics of testosterone therapy in hypogonadal males. This clinic study was a single and multiple, ascending-dose study that was designed to determine the optimal starting, titration (if appropriate), or single fixed dose for safety and efficacy targeted by the US FDA. The study also verified the time for testosterone levels to reach steady state and identified a suitable fixed dose dosing regimen that satisfies an unmet need for safety and efficacy for oral TT.
This study was carried out with conditions of a single-center, randomized, double-blind, placebo-controlled, ascending multiple-dose, and serial-group in adult hypogonadal male subjects. The objectives of this study were: • a) To assess the safety, efficacy, and tolerability of escalating single and multiple oral doses of TU dosage forms in hypogonadal males • b) To determine the pharmacokinetics (PK) of testosterone (T), DHT, TU, DHTU, and estradiol (E2) after single and multiple oral doses of TU dosage forms in hypogonadal males • C) To identify a fixed dose dosing regimen satisfying US FDA targets, without needing to titrate, for restoring serum T levels in hypogonadal males to the normal T range.
The dosing regimen for this clinical study ranged from 150 mg daily dose (75 mg BID dose) to 600 mg daily dose (300 mg BID dose). Observed pharmacokinetic parameters (T, DHT, TU, DHTU, and E2) after single and multiple oral doses of TU dosage forms in the patients were recorded in connection with each daily dose listed in the report.
The overall analyzed results of this clinical study were plotted according to % of patients for safety (Cmax<1,500 ng/dL) and efficacy (Cavg>300 ng/dL) with a variety of dosing regimens. Note that only doses that were multiples of 75 mg were tested in the clinical study, the results predicted for the other doses are estimated from these values.

[1] = Regimen #1, TID-equal dose, TU 75/75/75 mg
[2] = Regimen #2, TID-equal dose, TU 112/112/112 mg
[3] = Regimen #3, TID-equal dose, TU 125/125/125 mg
[4] = Regimen #4, TID-equal dose, TU 150/150/150 mg
[5] = Regimen #5, TID-equal dose, TU 188/188/188 mg
[6] = Regimen #6, TID-equal dose, TU 225/225/225 mg
[7] = Regimen #7, TID-equal dose, TU 237/237/237 mg
[8] = Regimen #8, TID-equal dose, TU 250/250/250 mg
[9] = Regimen #9, BID-equal dose (AM/PM), TU 75/75 mg
[10] = Regimen #10, BID-equal dose (AM/PM), TU 150/150 mg
[11] = Regimen #11, BID-equal dose (AM/PM), TU 215/215 mg
[12] = Regimen #12, BID-equal dose (AM/PM), TU 225/225 mg
[13] = Regimen #13, BID-equal dose (AM/PM), TU 237/237 mg
[14] = Regimen #14, BID-equal dose (AM/PM), TU 250/250 mg
[15] = Regimen #15, BID-equal dose (AM/PM), TU 265/265 mg
[16] = Regimen #16, BID-equal dose (AM/PM), TU 300/300 mg
[17] = Regimen #17, BID-different dose (AM/PM), TU 75/225 mg
[18] = Regimen #18, BID-different dose (AM/PM), TU 75/300 mg
[19] = Regimen #19, BID-different dose (AM/PM), TU 150/225 mg
[20] = Regimen #20, BID-different dose (AM/PM), TU 225/150 mg
[21] = Regimen #21, BID-different dose (AM/PM), TU 225/300 mg
[22] = Regimen #22, BID-different dose (AM/PM), TU 300/75 mg
[23] = Regimen #23, BID-different dose (AM/PM), TU 300/150 mg
[24] = Regimen #24, BID-different dose (AM/PM), TU 300/225 mg

CCCCCCCCCCC(=O)O[C@H]1CC[C@H]2[C@@H]3CCC4=CC(=O)CC[C@]4(C)[C@H]3CC[C@]12C [TU, testosterone undecanoate]
Cavg >300 ng/dL ≥75% patients [1]: No | Cavg >300 ng/dL ≥80% patients [1]: No | Cavg >300 ng/dL ≥75% patients [2]: No | Cavg >300 ng/dL ≥80% patients [2]: No | Cavg >300 ng/dL ≥75% patients [3]: No | Cavg >300 ng/dL ≥80% patients [3]: No | Cavg >300 ng/dL ≥75% patients [4]: Yes | Cavg >300 ng/dL ≥80% patients [4]: Yes | Cavg >300 ng/dL ≥75% patients [5]: Yes | Cavg >300 ng/dL ≥80% patients [5]: Yes | Cavg >300 ng/dL ≥75% patients [6]: Yes | Cavg >300 ng/dL ≥80% patients [6]: Yes | Cmax > 1500 ng/dL <15% patients [6]: No | Cmax > 1500 ng/dL <20% patients [6]: Yes | Cmax > 1800 ng/dL <5% patients [6]: No | Cmax > 1800 ng/dL <10% patients [6]: Yes | Cmax > 2500 ng/dL <2% patients [6]: Yes | Cmax > 2500 ng/dL none of patients [6]: No | Cavg >300 ng/dL ≥75% patients [7]: Yes | Cavg >300 ng/dL ≥80% patients [7]: Yes | Cmax > 1500 ng/dL <15% patients [7]: No | Cmax > 1500 ng/dL <20% patients [7]: Yes | Cmax > 1800 ng/dL <5% patients [7]: No | Cmax > 1800 ng/dL <10% patients [7]: Yes | Cmax > 2500 ng/dL <2% patients [7]: No | Cmax > 2500 ng/dL none of patients [7]: No | Cavg >300 ng/dL ≥75% patients [8]: Yes | Cavg >300 ng/dL ≥80% patients [8]: Yes | Cmax > 1500 ng/dL <15% patients [8]: No | Cmax > 1500 ng/dL <20% patients [8]: No | Cmax > 1800 ng/dL <5% patients [8]: No | Cmax > 1800 ng/dL <10% patients [8]: No | Cmax > 2500 ng/dL <2% patients [8]: No | Cmax > 2500 ng/dL none of patients [8]: No | Cavg >300 ng/dL ≥75% patients [9]: No | Cavg >300 ng/dL ≥80% patients [9]: No | Cmax > 1500 ng/dL <15% patients [9]: Yes | Cmax > 1500 ng/dL <20% patients [9]: Yes | Cmax > 1800 ng/dL <5% patients [9]: Yes | Cmax > 1800 ng/dL <10% patients [9]: Yes | Cmax > 2500 ng/dL <2% patients [9]: Yes | Cmax > 2500 ng/dL none of patients [9]: Yes | Cavg >300 ng/dL ≥75% patients [10]: No | Cavg >300 ng/dL ≥80% patients [10]: No | Cmax > 1500 ng/dL <15% patients [10]: Yes | Cmax > 1500 ng/dL <20% patients [10]: Yes | Cmax > 1800 ng/dL <5% patients [10]: Yes | Cmax > 1800 ng/dL <10% patients [10]: Yes | Cmax > 2500 ng/dL <2% patients [10]: Yes | Cmax > 2500 ng/dL none of patients [10]: Yes | Cavg >300 ng/dL ≥75% patients [11]: Yes | Cavg >300 ng/dL ≥80% patients [11]: No | Cmax > 1500 ng/dL <15% patients [11]: Yes | Cmax > 1500 ng/dL <20% patients [11]: Yes | Cmax > 1800 ng/dL <5% patients [11]: Yes | Cmax > 1800 ng/dL <10% patients [11]: Yes | Cmax > 2500 ng/dL <2% patients [11]: Yes | Cmax > 2500 ng/dL none of patients [11]: Yes | Cavg >300 ng/dL ≥75% patients [12]: Yes | Cavg >300 ng/dL ≥80% patients [12]: Yes | Cmax > 1500 ng/dL <15% patients [12]: Yes | Cmax > 1500 ng/dL <20% patients [12]: Yes | Cmax > 1800 ng/dL <5% patients [12]: Yes | Cmax > 1800 ng/dL <10% patients [12]: Yes | Cmax > 2500 ng/dL <2% patients [12]: Yes | Cmax > 2500 ng/dL none of patients [12]: Yes | Cavg >300 ng/dL ≥75% patients [13]: Yes | Cavg >300 ng/dL ≥80% patients [13]: Yes | Cmax > 1500 ng/dL <15% patients [13]: Yes | Cmax > 1500 ng/dL <20% patients [13]: Yes | Cmax > 1800 ng/dL <5% patients [13]: Yes | Cmax > 1800 ng/dL <10% patients [13]: Yes | Cmax > 2500 ng/dL <2% patients [13]: Yes | Cmax > 2500 ng/dL none of patients [13]: Yes | Cavg >300 ng/dL ≥75% patients [14]: Yes | Cavg >300 ng/dL ≥80% patients [14]: Yes | Cmax > 1500 ng/dL <15% patients [14]: No | Cmax > 1500 ng/dL <20% patients [14]: Yes | Cmax > 1800 ng/dL <5% patients [14]: Yes | Cmax > 1800 ng/dL <10% patients [14]: Yes | Cmax > 2500 ng/dL <2% patients [14]: Yes | Cmax > 2500 ng/dL none of patients [14]: Yes | Cavg >300 ng/dL ≥75% patients [15]: Yes | Cavg >300 ng/dL ≥80% patients [15]: Yes | Cmax > 1500 ng/dL <15% patients [15]: No | Cmax > 1500 ng/dL <20% patients [15]: Yes | Cmax > 1800 ng/dL <5% patients [15]: No | Cmax > 1800 ng/dL <10% patients [15]: Yes | Cmax > 2500 ng/dL <2% patients [15]: Yes | Cmax > 2500 ng/dL none of patients [15]: No | Cavg >300 ng/dL ≥75% patients [16]: Yes | Cavg >300 ng/dL ≥80% patients [16]: Yes | Cmax > 1500 ng/dL <15% patients [16]: No | Cmax > 1500 ng/dL <20% patients [16]: No | Cmax > 1800 ng/dL <5% patients [16]: No | Cmax > 1800 ng/dL <10% patients [16]: Yes | Cmax > 2500 ng/dL <2% patients [16]: Yes | Cmax > 2500 ng/dL none of patients [16]: No | Cavg >300 ng/dL ≥75% patients [17]: No | Cavg >300 ng/dL ≥80% patients [17]: No | Cmax > 1500 ng/dL <15% patients [17]: Yes | Cmax > 1500 ng/dL <20% patients [17]: Yes | Cmax > 1800 ng/dL <5% patients [17]: Yes | Cmax > 1800 ng/dL <10% patients [17]: Yes | Cmax > 2500 ng/dL <2% patients [17]: Yes | Cmax > 2500 ng/dL none of patients [17]: Yes | Cavg >300 ng/dL ≥75% patients [18]: No | Cavg >300 ng/dL ≥80% patients [18]: No | Cmax > 1500 ng/dL <15% patients [18]: Yes | Cmax > 1500 ng/dL <20% patients [18]: Yes | Cmax > 1800 ng/dL <5% patients [18]: No | Cmax > 1800 ng/dL <10% patients [18]: Yes | Cmax > 2500 ng/dL <2% patients [18]: Yes | Cmax > 2500 ng/dL none of patients [18]: No | Cavg >300 ng/dL ≥75% patients [19]: No | Cavg >300 ng/dL ≥80% patients [19]: No | Cmax > 1500 ng/dL <15% patients [19]: Yes | Cmax > 1500 ng/dL <20% patients [19]: Yes | Cmax > 1800 ng/dL <5% patients [19]: Yes | Cmax > 1800 ng/dL <10% patients [19]: Yes | Cmax > 2500 ng/dL <2% patients [19]: Yes | Cmax > 2500 ng/dL none of patients [19]: Yes | Cavg >300 ng/dL ≥75% patients [20]: Yes | Cavg >300 ng/dL ≥80% patients [20]: No | Cmax > 1500 ng/dL <15% patients [20]: Yes | Cmax > 1500 ng/dL <20% patients [20]: Yes | Cmax > 1800 ng/dL <5% patients [20]: Yes | Cmax > 1800 ng/dL <10% patients [20]: Yes | Cmax > 2500 ng/dL <2% patients [20]: Yes | Cmax > 2500 ng/dL none of patients [20]: Yes | Cavg >300 ng/dL ≥75% patients [21]: Yes | Cavg >300 ng/dL ≥80% patients [21]: Yes | Cmax > 1500 ng/dL <15% patients [21]: No | Cmax > 1500 ng/dL <20% patients [21]: No | Cmax > 1800 ng/dL <5% patients [21]: No | Cmax > 1800 ng/dL <10% patients [21]: Yes | Cmax > 2500 ng/dL <2% patients [21]: Yes | Cmax > 2500 ng/dL none of patients [21]: No | Cavg >300 ng/dL ≥75% patients [22]: No | Cavg >300 ng/dL ≥80% patients [22]: No | Cmax > 1500 ng/dL <15% patients [22]: No | Cmax > 1500 ng/dL <20% patients [22]: Yes | Cmax > 1800 ng/dL <5% patients [22]: No | Cmax > 1800 ng/dL <10% patients [22]: Yes | Cavg >300 ng/dL ≥75% patients [23]: Yes | Cavg >300 ng/dL ≥80% patients [23]: Yes | Cavg >300 ng/dL ≥75% patients [24]: Yes | Cavg >300 ng/dL ≥80% patients [24]: Yes | US FDA T level targets for safety and efficacy (fixed dose, 430 mg TU daily (215 mg BID-equal) to 480 mg TU daily (240 mg BID-equal)): can satisfy US FDA T level targets for safety and efficacy without titration
